Data as given in the supplement of paper PMC5908809.

Experiments:
[1] = test system: normal NK cells expanded with K562-aAPC; assay: drug sensitivity score (DSS) (DSS units); higher = more sensitive; extreme values may be limits of the assay; conditions: 72 h; IL-2 2.5 ng/mL
Procedure: (§1)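 Drug sensitivity and resistance testing on K562-aAPC-expanded normal NK cells: 5 concentrations (10-fold steps over a 10,000-fold range), 72 h at 37 °C, viability by CellTiter-Glo normalised to DMSO and benzethonium chloride controls; DSS from the fitted curve.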

[2] = test system: NK-92 (IL-2 2.5 ng/mL); assay: percent inhibition of viability; higher = more inhibition; conditions: 72 h
[3] = test system: KHYG-1 (IL-2 2.5 ng/mL); assay: as above; conditions: 72 h
[4] = test system: normal primary NK cells, pool 3 (3 donors) (IL-2 2.5 ng/mL); assay: as above; conditions: 72 h
[5] = test system: NKL (IL-2 2.5 ng/mL); assay: as above; conditions: 72 h
[6] = test system: IMC-1 (IL-2 20 ng/mL); assay: as above; conditions: 72 h
[7] = test system: normal primary NK cells, pool 2 (3 donors) (IL-2 2.5 ng/mL); assay: as above; conditions: 72 h
[8] = test system: normal primary NK cells, pool 1 (3 donors), resting (IL-2 0 ng/mL); assay: as above; conditions: 72 h
[9] = test system: normal primary NK cells, pool 1 (3 donors) (IL-2 2.5 ng/mL); assay: as above; conditions: 72 h
[10] = test system: DERL-7 (IL-2 2.5 ng/mL); assay: as above; conditions: 72 h
[11] = test system: SNK-6 (IL-2 2.5 ng/mL); assay: as above; conditions: 72 h
[12] = test system: YT (IL-2 2.5 ng/mL); assay: as above; conditions: 72 h
[13] = test system: NK-YS (IL-2 2.5 ng/mL); assay: as above; conditions: 72 h
[14] = test system: KAI3 (IL-2 2.5 ng/mL); assay: as above; conditions: 72 h
[15] = test system: NK-92 (IL-2 2.5 ng/mL); assay: drug sensitivity score (DSS) (DSS units); higher = more sensitive; extreme values may be limits of the assay; conditions: 72 h
[16] = test system: KHYG-1 (IL-2 2.5 ng/mL); assay: as above; conditions: 72 h
[17] = test system: normal primary NK cells, pool 3 (3 donors) (IL-2 2.5 ng/mL); assay: as above; conditions: 72 h
[18] = test system: NKL (IL-2 2.5 ng/mL); assay: as above; conditions: 72 h
[19] = test system: IMC-1 (IL-2 20 ng/mL); assay: as above; conditions: 72 h
[20] = test system: normal primary NK cells, pool 2 (3 donors) (IL-2 2.5 ng/mL); assay: as above; conditions: 72 h
[21] = test system: normal primary NK cells, pool 1 (3 donors), resting (IL-2 0 ng/mL); assay: as above; conditions: 72 h
[22] = test system: normal primary NK cells, pool 1 (3 donors) (IL-2 2.5 ng/mL); assay: as above; conditions: 72 h
[23] = test system: DERL-7 (IL-2 2.5 ng/mL); assay: as above; conditions: 72 h
[24] = test system: SNK-6 (IL-2 2.5 ng/mL); assay: as above; conditions: 72 h
[25] = test system: YT (IL-2 2.5 ng/mL); assay: as above; conditions: 72 h
[26] = test system: NK-YS (IL-2 2.5 ng/mL); assay: as above; conditions: 72 h
[27] = test system: KAI3 (IL-2 2.5 ng/mL); assay: as above; conditions: 72 h
[28] = test system: normal NK cells expanded with K562-aAPC; assay: percent inhibition of viability; higher = more inhibition; conditions: 72 h, IL-2 2.5 ng/mL
Procedure: as §1

CS(=O)(=O)CCNCc1ccc(-c2ccc3ncnc(Nc4ccc(OCc5cccc(F)c5)c(Cl)c4)c3c2)o1 [Lapatinib] (max concentration tested 1000 nM)
Conditions	drug sensitivity score
[1]	0
[15]	6.01
[16]	0
[17]	0
[18]	0.4
[19]	0
[20]	0
[21]	2.38
[22]	1.89
[23]	0
[24]	0
[25]	0.63
[26]	0
[27]	0.01

percent inhibition of viability [%]
Conditions	0.1 nM	1 nM	10 nM	100 nM	1000 nM
[2]	-9.88	-2.81	5.1	30.6	28.1
[3]	-0.63	-4.12	-1.74	0.27	9.49
[4]	-12.2	9.92	7.91	-3.46	-0.3
[5]	-3.26	-0.98	3.19	8.28	14.2
[6]	-4.47	-0.19	-1	2.17	9.49
[7]	-7.46	8.95	4.77	1.81	4
[8]	-12	4	-0.24	6.97	30.1
[9]	-9.91	11.7	10.2	12.6	4.9
[10]	4.2	1.17	2.53	-0.89	9.64
[11]	-20.3	-7.47	-17	-15.2	-16.8
[12]	-1.2	-2.12	-1.08	6.88	14.2
[13]	-7.32	-8.47	-3.59	-5.11	5.83
[14]	-4.84	-7.01	-5.48	-1.85	11.8
[28]	-5.72	-9.28	-7.55	-4.36	-0.7

COc1cc(F)c(F)c(Nc2ccc(I)cc2F)c1NS(=O)(=O)C1(C[C@H](O)CO)CC1 [Refametinib] (max concentration tested 10000 nM)
Conditions	drug sensitivity score
[1]	1.44
[15]	4.28
[16]	16
[17]	1.74
[18]	19.1
[19]	2.67
[20]	3.81
[21]	4.14
[22]	3.32
[23]	14.7
[24]	0
[25]	4.03
[26]	2.69
[27]	6.75

percent inhibition of viability [%]
Conditions	1 nM	10 nM	100 nM	1000 nM	10000 nM
[2]	-0.27	-1.5	-9.05	19.5	37.8
[3]	-5.12	4.63	33.5	62.9	76.7
[4]	-4.86	5.75	-0.36	3.44	28.4
[5]	-2.52	16.4	39.5	74.4	82.3
[6]	-4.32	-6.37	-1.56	6.1	35.3
[7]	0	6.56	8.63	16.2	40.9
[8]	0.56	9.23	10.7	12.4	49.4
[9]	-10.8	15.4	14	11.4	29.1
[10]	6.17	13	30.2	53.8	78
[11]	2.1	-35.6	-25	-46.3	-9.38
[12]	1.91	1.53	7.51	17.5	44.4
[13]	-4.96	-5.01	5	14.1	31.5
[14]	-4.59	6.78	18.3	26.5	39.6
[28]	-5.33	-11.3	-6.84	4.3	23.1

COc1cc(Nc2ncc3c(n2)-c2ccc(Cl)cc2C(c2c(F)cccc2OC)=NC3)ccc1C(=O)O [Alisertib] (max concentration tested 10000 nM)
Conditions	drug sensitivity score
[1]	16.4
[15]	21.1
[16]	24.4
[17]	1.41
[18]	17.9
[19]	19.8
[20]	1.95
[21]	5.81
[22]	0
[23]	23.4
[24]	24.9
[25]	13.6
[26]	24.5
[27]	16

percent inhibition of viability [%]
Conditions	1 nM	10 nM	100 nM	1000 nM	10000 nM
[2]	-1.61	21.5	53.4	63.6	77.1
[3]	-6.82	13.3	62.3	82.9	90.3
[4]	4.24	-4.25	17.1	4.71	23
[5]	-15.7	-12.7	54.1	31.1	62.9
[6]	-9.95	3	42.5	76.7	88
[7]	-1.45	-4.51	12.5	7.67	29.6
[8]	4.36	18.6	7.69	21.1	47.6
[9]	-6.59	4.27	6.91	0.99	12.4
[10]	3.14	3.32	73.9	65.1	72.8
[11]	-9.82	4.71	73.7	81.3	84.4
[12]	-1.37	10.7	43.4	32.9	60.8
[13]	-8.82	18.6	67.4	75.4	71.3
[14]	-7.42	6.5	38.4	56.8	73
[28]	-8.29	-10.5	39	46	63.8

CNC(=O)c1ccc(N2C(=S)N(c3ccc(C#N)c(C(F)(F)F)c3)C(=O)C2(C)C)cc1F [Enzalutamide] (max concentration tested 10000 nM)
Conditions	drug sensitivity score
[1]	0
[15]	0.49
[16]	0
[17]	0
[18]	0
[19]	0.37
[20]	0
[21]	2.39
[22]	0
[23]	0
[24]	4.37
[25]	0
[26]	0
[27]	0

percent inhibition of viability [%]
Conditions	1 nM	10 nM	100 nM	1000 nM	10000 nM
[2]	1.65	-8.18	-6.81	-3.14	20.8
[3]	-6.93	-4.23	-3.55	-6.97	4.84
[4]	-14.6	-16.8	-6.74	-9.3	-4.81
[5]	-2.17	-13.2	-14	-9.34	1.3
[6]	-3.38	0.92	-2.2	-1.9	18.3
[7]	-10.2	-3.87	-13.1	-6.47	3.77
[8]	7.62	-0.58	-1.62	6.1	31.6
[9]	-3.9	0.9	-0.41	-2.29	4.21
[10]	-1.7	-4.09	-9.3	-2.76	-5
[11]	12.3	20.8	-9.97	42.2	17.6
[12]	-1.41	-1.46	-3.16	-4.82	3.56
[13]	-6.5	-3.69	-3.22	-8.67	5.9
[14]	-6.43	-7.59	-3.84	-14.2	-5.9
[28]	-2.32	-10.8	-8.2	-6.11	-8.96
